Measurements published in the supplement of paper PMC11061612.

Assays:
Test in all cases: Bliss excess, mean over the matrix (fraction); higher = more synergy
[1] = test system: HCC1428 (Breast Carcinoma)
Outline: (§1)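 Cell lines in DMEM/F12 or RPMI with 10% FBS were plated in 1536-well plates, held 24 hours at 37°C, 5% CO2, then given two-drug dose matrices for 72 hours (DMSO typically 0.2%). Viability was read by CellTiter-Glo 2.0 luminescence and scaled as inhibition from 0 (vehicle wells) to 1 (blank wells). Combination Emax is the second-highest inhibition in the matrix; Bliss excess is observed combination effect minus expected EA + EB − EA·EB, EA and EB being single-agent effects.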

[2] = test system: 22RV1 (Prostate Carcinoma)
Outline: as §1

[3] = test system: SK-HEP-1 (Hepatocellular Carcinoma)
Outline: as §1

[4] = test system: Jurkat (T-Lymphoblastic Leukemia)
Outline: as §1

[5] = test system: JVM-2 (B-Cell Non-Hodgkin's Lymphoma)
Outline: as §1

[6] = test system: MDA-MB-436 (Breast Carcinoma)
Outline: as §1

[7] = test system: IM-9 (Non-Cancerous)
Outline: as §1

[8] = test system: KYSE-140 (Esophageal Squamous Cell Carcinoma)
Outline: as §1

[9] = test system: DMS-53 (Small Cell Lung Carcinoma)
Outline: as §1

[10] = test system: HT55 (Colorectal Carcinoma)
Outline: as §1

[11] = test system: OACp4C (Esophageal Adenocarcinoma)
Outline: as §1

[12] = test system: EB2 (Burkitt's Lymphoma)
Outline: as §1

[13] = test system: HCC70 (Breast Carcinoma)
Outline: as §1

[14] = test system: JIMT-1 (Breast Carcinoma)
Outline: as §1

[15] = test system: 769-P (Kidney Carcinoma)
Outline: as §1

[16] = test system: HCC1395 (Breast Carcinoma)
Outline: as §1

[17] = test system: GCT (Other Solid Carcinomas)
Outline: as §1

[18] = test system: KP-N-YN (Neuroblastoma)
Outline: as §1

[19] = test system: CESS (Acute Myeloid Leukemia)
Outline: as §1

[20] = test system: CAL-27 (Oral Cavity Carcinoma)
Outline: as §1

| Compound | Bliss excess [1] | Bliss excess [2] | Bliss excess [3] | Bliss excess [4] | Bliss excess [5] | Bliss excess [6] | Bliss excess [7] | Bliss excess [8] | Bliss excess [9] | Bliss excess [10] | Bliss excess [11] | Bliss excess [12] | Bliss excess [13] | Bliss excess [14] | Bliss excess [15] | Bliss excess [16] | Bliss excess [17] | Bliss excess [18] | Bliss excess [19] | Bliss excess [20] |
| --- | --- | --- | --- | --- | --- | --- | --- | --- | --- | --- | --- | --- | --- | --- | --- | --- | --- | --- | --- | --- |
| COc1cccc2c1C(=O)c1c(O)c3c(c(O)c1C2=O)C[C@@](O)(C(=O)CO)C[C@@H]3O[C@H]1C[C@H](N)[C@H](O)[C@H](C)O1 [Doxorubicin] + Cc1cc2ncnn2cc1Nc1ncc2c(n1)n(C1CCOCC1)c(=O)n2C [AZD7648] (first compound max 1 µM, 7x7, partner max 10 µM) | -0.0499 | -0.0351 | 0.0292 | 0.181 | 0.071 | 0.0122 | 0.127 | 0.05 | 0.0197 | 0.0622 | 0.0636 | 0.0972 | 0.0344 | 0.0514 | 0.0903 | -0.0234 | 0.0589 | 0.0805 | 0.11 | 0.0853 |
| CS(=O)(=O)CCNCc1ccc(-c2ccc3ncnc(Nc4ccc(OCc5cccc(F)c5)c(Cl)c4)c3c2)o1 [Lapatinib] + C[C@@H](Oc1cc(-c2cnn(C3CCNCC3)c2)cnc1N)c1c(Cl)ccc(F)c1Cl [Crizotinib] (first compound max 10 µM, 7x7, partner max 10 µM) | -0.043 | -0.108 | -0.0259 | 0.0331 | -0.0131 | -0.0237 | -0.0378 | -0.0083 | -0.0205 | -0.0412 | -0.0355 | -0.0705 | -0.0208 | 0.0444 | -0.0331 | -0.0724 | -0.0251 | -0.0084 | -0.0826 | -0.0589 |
| CC(=O)c1c(C)c2cnc(Nc3ccc(N4CCNCC4)cn3)nc2n(C2CCCC2)c1=O [Palbociclib] + CC1(C)CCC(CN2CCN(c3ccc(C(=O)NS(=O)(=O)c4ccc(NCC5CCOCC5)c([N+](=O)[O-])c4)c(Oc4cnc5[nH]ccc5c4)c3)CC2)=C(c2ccc(Cl)cc2)C1 [Venetoclax] (first compound max 10 µM, 7x7, partner max 1 µM) | -0.0378 | -0.0571 | -0.167 | 0.0157 | -0.0273 | -0.0345 | 0.0389 | -0.0285 | 0.0325 | 0.0107 | -0.0167 | -0.044 | -0.0356 | -0.0448 | -0.0158 | -0.0472 | 0.0353 | -0.0844 | -0.0272 | -0.0483 |
| CC(=O)c1c(C)c2cnc(Nc3ccc(N4CCNCC4)cn3)nc2n(C2CCCC2)c1=O [Palbociclib] + Cc1c2c(nn1C)CSCc1cc(n(C)n1)CSc1cc(c3ccccc3c1)OCCCc1c(C(=O)O)n(C)c3c-2c(Cl)ccc13 [AZD5991] (first compound max 10 µM, 7x7, partner max 1 µM) | -0.033 | -0.0781 | 0.0434 | -0.083 | -0.0206 | -0.0243 | 0.0229 | -0.0814 | 0.044 | 0.0046 | -0.064 | -0.0352 | -0.0171 | -0.0348 | -0.004 | -0.0403 | -0.049 | 0.0562 | -0.0341 | -0.0869 |
| CC(=O)c1c(C)c2cnc(Nc3ccc(N4CCNCC4)cn3)nc2n(C2CCCC2)c1=O [Palbociclib] + Cn1cnc2c(F)c(Nc3ccc(Br)cc3Cl)c(C(=O)NOCCO)cc21 [Selumetinib] (first compound max 10 µM, 7x7, partner max 10 µM) | -0.0235 | 0.0328 | -0.114 | -0.0297 | 0.0271 | 0.0157 | 0.0248 | -0.0387 | -0.0207 | 0.0782 | -0.0359 | -0.018 | 0.055 | -0.0436 | 0.039 | -0.0529 | -0.0369 | -0.0253 | 0.0202 | -0.0132 |
| COc1cccc(OCCCN)c1-c1cc(Nc2cnc(C#N)cn2)n[nH]1 [Prexasertib] + C=CCn1c(=O)c2cnc(Nc3ccc(N4CCN(C)CC4)cc3)nc2n1-c1cccc(C(C)(C)O)n1 [AZD1775] (first compound max 1 µM, partner max 1 µM) | 0.138 | 0.06 | 0.0775 | 0.0561 | -0.0174 | 0.165 | 0.0644 | 0.0329 | 0.0883 | 0.0259 | -0.0189 | 0.0249 | 0.0723 | 0.032 | 0.0163 | 0.0111 | 0.0294 | 0.0385 | -0.0059 | 0.0945 |
| COc1cccc(OCCCN)c1-c1cc(Nc2cnc(C#N)cn2)n[nH]1 [Prexasertib] + CCc1c2c(nc3ccc(O)cc13)-c1cc3c(c(=O)n1C2)COC(=O)[C@]3(O)CC [SN-38] (first compound max 1 µM, 7x7, partner max 0.3 µM) | 0.045 | -0.0649 | -0.0339 | -0.005 | -0.0493 | -0.003 | 0.0077 | -0.0076 | -0.0377 | 0.0552 | 0.0186 | -0.0439 | -0.0259 | 0.0096 | -0.0688 | -0.0466 | -0.0185 | -0.0158 | -0.0364 | 0.0083 |
| COc1cccc(OCCCN)c1-c1cc(Nc2cnc(C#N)cn2)n[nH]1 [Prexasertib] + CN(C)CCCOc1ccc(-c2ccc3ncc4c(c3c2)n(C2CCOCC2)c(=O)n4C)cn1 [AZD0156] (first compound max 1 µM, 7x7, partner max 1 µM) | -0.0703 | -0.0213 | -0.0206 | -0.0264 | -0.0104 | -0.0428 | -0.0022 | -0.0129 | -0.0142 | 0.0444 | -0.0162 | -0.0088 | -0.0319 | 0.0375 | 0.0193 | -0.046 | -0.0084 | 0.0202 | 0.0062 | -0.0014 |
| COc1cccc(OCCCN)c1-c1cc(Nc2cnc(C#N)cn2)n[nH]1 [Prexasertib] + C[C@@H]1COCCN1C2=NC(=NC(=C2)C3(CC3)[S@](=N)(=O)C)C4=C5C=CNC5=NC=C4 [AZD6738] (first compound max 1 µM, 7x7, partner max 10 µM) | -0.02 | 0.0209 | 0.0447 | -0.0076 | -0.0625 | 0.0051 | -0.003 | -0.0191 | 0.032 | 0.0367 | -0.0882 | -0.0478 | -0.0133 | 0.0026 | 0.0022 | -0.0399 | -0.0001 | -0.0048 | -0.0065 | 0.0227 |
| COc1cccc(OCCCN)c1-c1cc(Nc2cnc(C#N)cn2)n[nH]1 [Prexasertib] + Cc1cc2ncnn2cc1Nc1ncc2c(n1)n(C1CCOCC1)c(=O)n2C [AZD7648] (first compound max 1 µM, 7x7, partner max 10 µM) | -0.0714 | -0.0316 | -0.0416 | -0.0008 | 0.0171 | -0.0552 | -0.014 | -0.0066 | -0.0344 | -0.0102 | 0.0093 | -0.0306 | -0.0053 | -0.0205 | -0.038 | -0.0527 | 0.0365 | -0.0221 | 0.0409 | 0.0291 |
| COc1cccc(OCCCN)c1-c1cc(Nc2cnc(C#N)cn2)n[nH]1 [Prexasertib] + O=C(c1cc(Cc2n[nH]c(=O)c3ccccc23)ccc1F)N1CCN(C(=O)C2CC2)CC1 [Olaparib] (first compound max 1 µM, 7x7, partner max 10 µM) | 0.0501 | -0.072 | -0.0127 | -0.0054 | 0.0213 | 0.0035 | 0.0046 | -0.152 | -0.0473 | -0.0102 | -0.0222 | -0.0373 | -0.0503 | -0.0182 | -0.118 | -0.0368 | 0.0068 | -0.245 | -0.0511 | -0.0113 |
| CCc1c2c(nc3ccc(O)cc13)-c1cc3c(c(=O)n1C2)COC(=O)[C@]3(O)CC [SN-38] + CN(C)CCCOc1ccc(-c2ccc3ncc4c(c3c2)n(C2CCOCC2)c(=O)n4C)cn1 [AZD0156] (first compound max 0.3 µM, 7x7, partner max 1 µM) | -0.0584 | 0.0403 | 0.0105 | 0.059 | 0.0156 | 0.0033 | 0.0891 | 0.0176 | -0.0288 | 0.0776 | 0.0666 | 0.0238 | 0.0152 | 0.0056 | 0.018 | -0.0024 | 0.0183 | 0.0238 | 0.0031 | 0.0255 |
| Cn1cnc2c(F)c(Nc3ccc(Br)cc3Cl)c(C(=O)NOCCO)cc21 [Selumetinib] + C=CCn1c(=O)c2cnc(Nc3ccc(N4CCN(C)CC4)cc3)nc2n1-c1cccc(C(C)(C)O)n1 [AZD1775] (first compound max 10 µM, partner max 1 µM) | -0.0409 | 0.0454 | 0.0127 | -0.0309 | -0.071 | -0.0002 | -0.045 | -0.0514 | -0.0174 | -0.0422 | -0.0357 | -0.071 | 0.0361 | -0.0606 | -0.0944 | -0.0333 | -0.0074 | -0.0751 | -0.0037 | 0.0384 |
| Cn1cnc2c(F)c(Nc3ccc(Br)cc3Cl)c(C(=O)NOCCO)cc21 [Selumetinib] + CC(C)n1c(=O)n(C)c2cnc3cc(F)c(-c4ccc(OCCCN5CCCCC5)nc4)cc3c21 [AZD1390] (first compound max 10 µM, 7x7, partner max 0.3 µM) | -0.0333 | -0.0538 | -0.0043 | -0.0321 | 0.0102 | -0.0394 | -0.0603 | -0.0337 | -0.0267 | -0.0388 | 0.0048 | -0.0532 | 0.0225 | -0.0471 | 0.0125 | -0.0327 | -0.0054 | -0.0171 | -0.0355 | -0.0489 |
| Cn1cnc2c(F)c(Nc3ccc(Br)cc3Cl)c(C(=O)NOCCO)cc21 [Selumetinib] + CCN(CCO)CCCOc1ccc2c(Nc3cc(CC(=O)Nc4cccc(F)c4)[nH]n3)ncnc2c1 [AZD2811] (first compound max 10 µM, 7x7, partner max 1 µM) | 0.0269 | -0.0797 | -0.0421 | -0.0216 | 0.0315 | -0.006 | -0.032 | -0.0554 | -0.0629 | 0.0032 | 0.0193 | -0.0564 | 0.0138 | -0.0403 | -0.0062 | -0.008 | -0.0185 | 0.0253 | 0.0943 | -0.0921 |
